In paper PMC5061557 (Structure (London, England : 1993), 2016):

Legend:
WTHslU = WTHslU (Escherichia coli, UniProt P0A6H5); assay: NADH-coupled ATPase assay; assay type: biochemical; settings: 5 mM ATP, pH 7.5, 20 mM MgCl2, 37 °C, without HslV
crystal structure = molecular target: the molecule itself; assay: crystal structure

Chain of WTHslU (P0A6H5 whole entry): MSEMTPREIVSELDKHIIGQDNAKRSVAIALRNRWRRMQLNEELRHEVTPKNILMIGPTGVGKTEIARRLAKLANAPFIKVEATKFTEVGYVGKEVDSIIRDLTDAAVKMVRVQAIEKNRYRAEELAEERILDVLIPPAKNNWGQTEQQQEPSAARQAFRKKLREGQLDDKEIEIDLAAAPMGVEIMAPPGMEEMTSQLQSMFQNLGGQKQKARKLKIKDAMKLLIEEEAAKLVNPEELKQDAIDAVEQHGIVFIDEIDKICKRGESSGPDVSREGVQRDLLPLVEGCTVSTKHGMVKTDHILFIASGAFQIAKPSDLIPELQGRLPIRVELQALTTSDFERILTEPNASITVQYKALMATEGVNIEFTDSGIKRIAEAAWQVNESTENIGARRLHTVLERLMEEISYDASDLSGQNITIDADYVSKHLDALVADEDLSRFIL

| Molecule | NADH-coupled ATPase assay (WTHslU) | stoichiometry N (crystal structure) |
| --- | --- | --- |
| Nc1ncnc2c1ncn2[C@@H]1O[C@H](COP(=O)(O)OP(=O)(O)OP(=O)(O)O)[C@@H](O)[C@H]1O [ATP] | assayed rates of ATP hydrolysis for this enzyme and wild type | – |
| E. coli L199Q HslU mutant with an N-terminal H6 tag (enzyme, UniProt P0A6H5 1-443, looked up) MSEMTPREIVSELDKHIIGQDNAKRSVAIALRNRWRRMQLNEELRHEVTPKNILMIGPTGVGKTEIARRLAKLANAPFIKVEATKFTEVGYVGKEVDSIIRDLTDAAVKMVRVQAIEKNRYRAEELAEERILDVLIPPAKNNWGQTEQQQEPSAARQAFRKKLREGQLDDKEIEIDLAAAPMGVEIMAPPGMEEMTSQQQSMFQNLGGQKQKARKLKIKDAMKLLIEEEAAKLVNPEELKQDAIDAVEQHGIVFIDEIDKICKRGESSGPDVSREGVQRDLLPLVEGCTVSTKHGMVKTDHILFIASGAFQIAKPSDLIPELQGRLPIRVELQALTTSDFERILTEPNASITVQYKALMATEGVNIEFTDSGIKRIAEAAWQVNESTENIGARRLHTVLERLMEEISYDASDLSGQNITIDADYVSKHLDALVADEDLSRFIL | – | 6 |
